In ChEMBL document CHEMBL4373744, “Modifying the lipophilic part of phenylthiazole antibiotics to control their drug-likeness” (Eur J Med Chem, 2020):
Values after ≈ are worked out from the molar mass of the structure shown. Active and inactive are the calls of the source. No cut-off for these calls is given here.

Experiments:
[1] = system: Staphylococcus aureus; assay: Antimicrobial activity against vancomycin-resistant Staphylococcus aureus 10 by broth liquid microdilution method; type: functional
[2] = system: Staphylococcus aureus; assay: Antimicrobial activity against vancomycin-resistant Staphylococcus aureus 12 by broth liquid microdilution method; type: functional
[3] = system: Escherichia coli; assay: Antimicrobial activity against Escherichia coli JW55031 harboring deltatolC mutant by broth liquid microdilution method; type: functional
[4] = system: Escherichia coli; assay: Antimicrobial activity against Escherichia coli BW25113 by broth liquid microdilution method; type: functional
[5] = system: Staphylococcus epidermidis; assay: Antimicrobial activity against methicillin-resistant Staphylococcus epidermidis NRS101 by broth liquid microdilution method; type: functional
[6] = system: Enterococcus faecium; assay: Antimicrobial activity against vancomycin-resistant Enterococcus faecium ATCC 700221 by broth liquid microdilution method; type: functional
[7] = system: Listeria monocytogenes; assay: Antimicrobial activity against Listeria monocytogenes ATCC 19111 by broth liquid microdilution method; type: functional
[8] = system: Streptococcus pneumoniae; assay: Antimicrobial activity against cephalosporin-resistant Streptococcus pneumoniae ATCC 51916 by broth liquid microdilution method; type: functional
[9] = system: Streptococcus pneumoniae; assay: Antimicrobial activity against methicillin-resistant Streptococcus pneumoniae ATCC 700677 by broth liquid microdilution method; type: functional
[10] = system: Staphylococcus aureus; assay: Bactericidal activity against methicillin-resistant Staphylococcus aureus USA400 assessed as 3 log reduction in number of colony forming units at 5 times MIC incubated for 12 hrs by aliquots transfer to tryptic soy agar and grown for 18 to 20 hrs by Time-kill assay; type: functional, organism-based
[11] = system: Staphylococcus aureus; assay: Antibiofilm activity against methicillin-resistant Staphylococcus aureus USA300 at 4 times MIC incubated for 24 hrs by crystal violet staining based assay relative to control; type: functional
[12] = system: Staphylococcus aureus; assay: Antibiofilm activity against methicillin-resistant Staphylococcus aureus USA300 at 2 times MIC incubated for 24 hrs by crystal violet staining based assay relative to control; type: functional
[13] = system: Staphylococcus aureus; assay: Antimicrobial activity against methicillin-resistant Staphylococcus aureus USA400 infected in mouse J774 cells assessed as reduction in […] bacterial count at 2 to 4 times MIC incubated for 24 hrs; type: functional, organism-based
[14] = system: Staphylococcus aureus; assay: microbe, parasite or virus in culture; conditions: ATCC 6538
Description: Antimicrobial activity against methicillin-sensitive Staphylococcus aureus ATCC 6538 by broth liquid microdilution method

[15] = system: Staphylococcus aureus; assay: microbe, parasite or virus in culture; conditions: NRS 107
Description: Antimicrobial activity against methicillin-sensitive Staphylococcus aureus NRS 107 by broth liquid microdilution method

[16] = system: Staphylococcus aureus; assay: microbe, parasite or virus in culture; conditions: NRS119
Description: Antimicrobial activity against methicillin-resistant Staphylococcus aureus NRS119 by broth liquid microdilution method

[17] = system: Staphylococcus aureus; assay: microbe, parasite or virus in culture; conditions: NRS123
Description: Antimicrobial activity against methicillin-resistant Staphylococcus aureus NRS123 by broth liquid microdilution method

[18] = system: Staphylococcus aureus; assay: microbe, parasite or virus in culture; conditions: NRS384
Description: Antimicrobial activity against methicillin-resistant Staphylococcus aureus NRS384 by broth liquid microdilution method

[19] = system: Staphylococcus aureus; assay: microbe, parasite or virus in culture; conditions: NRS 385
Description: Antimicrobial activity against methicillin-resistant Staphylococcus aureus NRS 385 by broth liquid microdilution method

[20] = system: Staphylococcus aureus; assay: microbe, parasite or virus in culture; conditions: NRS 386
Description: Antimicrobial activity against methicillin-resistant Staphylococcus aureus NRS 386 by broth liquid microdilution method

[21] = system: Enterococcus faecalis; assay: microbe, parasite or virus in culture; conditions: ATCC 51299
[22] = system: Staphylococcus aureus; assay: Bactericidal activity against methicillin-resistant Staphylococcus aureus USA400 assessed as reduction in number of colony forming units at 5 times MIC incubated for 24 hrs by aliquots transfer to tryptic soy agar and grown for 18 to 20 hrs by Time-kill assay; type: functional, organism-based
[23] = system: Staphylococcus aureus; assay: Bactericidal activity against methicillin-resistant Staphylococcus aureus USA400 assessed as 3 log reduction in number of colony forming units at 5 times MIC incubated for 10 hrs by aliquots transfer to tryptic soy agar and grown for 18 to 20 hrs by Time-kill assay relative to control; type: functional; parameters: scale not given: the % may be the effect or the level left

CN[C@H](CC(C)C)C(=O)N[C@H]1C(=O)N[C@@H](CC(N)=O)C(=O)N[C@H]2C(=O)N[C@H]3C(=O)N[C@H](C(=O)N[C@H](C(=O)O)c4cc(O)cc(O)c4-c4cc3ccc4O)[C@H](O)c3ccc(c(Cl)c3)Oc3cc2cc(c3O[C@@H]2O[C@H](CO)[C@@H](O)[C@H](O)[C@H]2O[C@H]2C[C@](C)(N)[C@H](O)[C@H](C)O2)Oc2ccc(cc2Cl)[C@H]1O [VANCOMYCIN]
MBC [1]: > 64 µg/mL
MIC [1]: 64 µg/mL (≈ 44.2 µM)
MBC [2]: 64 µg/mL (≈ 44.2 µM)
MIC [2]: 64 µg/mL (≈ 44.2 µM)
MIC [3]: ≤ 0.5 µg/mL
MIC [4]: ≤ 0.5 µg/mL
MBC [5]: 2 µg/mL (≈ 1.38 µM)
MBC [6]: > 64 µg/mL
MIC [6]: > 64 µg/mL
MIC [7]: 1 µg/mL (≈ 0.69 µM)
MIC [8]: 1 µg/mL (≈ 0.69 µM)
MIC [9]: 2 µg/mL (≈ 1.38 µM)
Activity [10]: Active
Activity [11]: 16%
Activity [12]: 9%
Activity [13]: inactive
MBC [14]: 2 µg/mL (≈ 1.38 µM)
MBC [15]: 2 µg/mL (≈ 1.38 µM)
MBC [16]: 2 µg/mL (≈ 1.38 µM)
MBC [17]: 1 µg/mL (≈ 0.69 µM)
MBC [18]: 1 µg/mL (≈ 0.69 µM)
MBC [19]: 1 µg/mL (≈ 0.69 µM)
MBC [20]: 1 µg/mL (≈ 0.69 µM)
MBC [21]: 64 µg/mL (≈ 44.2 µM)
MIC [21]: 32 µg/mL (≈ 22.1 µM)

C/C(=N\NC(=N)N)c1sc(-c2ccc(C#CCCN3CCSC3)cc2)nc1C
MBC [1]: 32 µg/mL (≈ 77.6 µM)
MIC [1]: 4 µg/mL (≈ 9.69 µM)
MBC [2]: 32 µg/mL (≈ 77.6 µM)
MIC [2]: 4 µg/mL (≈ 9.69 µM)
MIC [3]: 16 µg/mL (≈ 38.8 µM)
MIC [4]: 64 µg/mL (≈ 155 µM)
MBC [5]: 8 µg/mL (≈ 19.4 µM)
MIC [5]: 2 µg/mL (≈ 4.85 µM)
MBC [6]: 16 µg/mL (≈ 38.8 µM)
MIC [6]: 4 µg/mL (≈ 9.69 µM)
MBC [7]: 32 µg/mL (≈ 77.6 µM)
MIC [7]: 4 µg/mL (≈ 9.69 µM)
MBC [8]: 32 µg/mL (≈ 77.6 µM)
MIC [8]: 8 µg/mL (≈ 19.4 µM)
MBC [9]: 32 µg/mL (≈ 77.6 µM)
MIC [9]: 8 µg/mL (≈ 19.4 µM)
Activity [22]: Active
Activity [23]: 99.9%
MBC [14]: 32 µg/mL (≈ 77.6 µM)
MIC [14]: 4 µg/mL (≈ 9.69 µM)
MBC [15]: 16 µg/mL (≈ 38.8 µM)
MIC [15]: 8 µg/mL (≈ 19.4 µM)
MBC [16]: 16 µg/mL (≈ 38.8 µM)
MIC [16]: 4 µg/mL (≈ 9.69 µM)
MBC [17]: 32 µg/mL (≈ 77.6 µM)
MIC [17]: 4 µg/mL (≈ 9.69 µM)
MBC [18]: 32 µg/mL (≈ 77.6 µM)
MIC [18]: 4 µg/mL (≈ 9.69 µM)
MBC [19]: 16 µg/mL (≈ 38.8 µM)
MIC [19]: 4 µg/mL (≈ 9.69 µM)
MBC [20]: 16 µg/mL (≈ 38.8 µM)
MIC [20]: 4 µg/mL (≈ 9.69 µM)
MBC [21]: 32 µg/mL (≈ 77.6 µM)
MIC [21]: 8 µg/mL (≈ 19.4 µM)
